Holding throughout (assay): relative viability (nuclei count vs DMSO), 5 days (fraction); higher = more cells survive
Compound in test [1]: CC1(C)CCC(CN2CCN(c3ccc(C(=O)NS(=O)(=O)c4ccc(NCC5CCOCC5)c([N+](=O)[O-])c4)c(Oc4cnc5[nH]ccc5c4)c3)CC2)=C(c2ccc(Cl)cc2)C1 [Venetoclax] + CS(=O)(=O)N1CCN(Cc2cc3nc(-c4cccc5[nH]ncc45)nc(N4CCOCC4)c3s2)CC1 [Pictilisib] (partner 1 µM)
In outline:
(§1)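 Each reported value is a median over duplicate plates. It expresses relative viability: treated-well nuclei count divided by vehicle-well nuclei count. Lung cancer cell lines in 1536-well plates were dosed by pin tool a day after seeding, alone with one drug or with a fixed anchor-drug dose plus five library-drug doses (not always all listed) in √10 steps, and nuclei were counted after 5 days.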

Compound in test [2]: CC1(C)CCC(CN2CCN(c3ccc(C(=O)NS(=O)(=O)c4ccc(NCC5CCOCC5)c([N+](=O)[O-])c4)c(Oc4cnc5[nH]ccc5c4)c3)CC2)=C(c2ccc(Cl)cc2)C1 [Venetoclax] + N=C(N)NC(=N)NCCc1ccccc1 [Phenformin] (partner 250 µM)
Put shortly:
as §1

Compound in test [3]: Cn1cnc2c(F)c(Nc3ccc(Br)cc3Cl)c(C(=O)NOCCO)cc21 [Selumetinib] + Nc1nc2[nH]cc(CCc3ccc(C(=O)N[C@@H](CCC(=O)O)C(=O)O)cc3)c2c(=O)[nH]1 [Pemetrexed] (partner 0.2 µM)
In outline: as §1

Compound in test [4]: Cn1cnc2c(F)c(Nc3ccc(Br)cc3Cl)c(C(=O)NOCCO)cc21 [Selumetinib] + COc1cc2c(Oc3ccc(NC(=O)C4(C(=O)Nc5ccc(F)cc5)CC4)cc3F)ccnc2cc1OCCCN1CCOCC1 [Foretinib] (partner 0.25 µM)
In outline:
as §1

For the cell line UMC-11, the relative viability in test [1] (first compound 0.01 µM) is 0.817; in test [1] (first compound 0.03162 µM), 0.985; in test [1] (first compound 0.1 µM), 0.747; in test [1] (first compound 0.3162 µM) it was 0.741; in test [1] (first compound 1 µM), 0.72; in test [2] (first compound 0.01 µM), 0.286. The relative viability was 0.319 in test [2] (first compound 0.03162 µM); 0.32 in test [2] (first compound 0.1 µM); 0.291 in test [2] (first compound 0.3162 µM); 0.292 in test [2] (first compound 1 µM); 0.771 in test [3] (first compound 0.02 µM); 0.788 in test [3] (first compound 0.06325 µM). In addition, the relative viability in test [3] (first compound 0.2 µM) stood at 0.827; in test [3] (first compound 0.6325 µM), 0.903; in test [4] (first compound 0.02 µM), 1.05; in test [4] (first compound 0.06325 µM), 1.11; in test [4] (first compound 0.2 µM), 1.05; in test [4] (first compound 0.6325 µM), 1.04.
